{
  "source": "patent US11446287B2",
  "about": "“Compounds and methods for EP300 or CBP modulation and indications therefor” (Opna Immuno-Oncology SA, priority 2019, dated 2022)",
  "note": "pIC50: −log10 of the molar value.",
  "data": [
    {"molecular_target": "T1, Recombinant human BRD4 containing dual bromodomains (BRD4-BD12 (1-477)) (Homo sapiens, UniProt O60885)", "T1 construct": "Recombinant human BRD4 containing dual bromodomains (BRD4-BD12 (1-477)); made in house; host or cells: E. coli BL21-CodonPlus (DE3), modified pET vector", "test": "BRD4 Alphascreen binding assay", "in_short": "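His-tagged human BRD4 tandem bromodomains (1-477, E. coli) incubated 1 h at room temperature with biotinylated tetra-acetylated H4 (1-21) peptide and compound in HEPES pH 7.5 buffer with 2 mM DTT. AlphaScreen signal read 30 min after adding beads (7.5 μg/ml); IC50 from four-parameter fit after normalization to controls.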", "values": [
      {"compound": "CCOc1cc(C(=O)O)c(F)cc1-c1cn([C@H]2CCOC2)c2ncc(-c3c(C)noc3C)cc12", "note": "[P-0360, (S)-4-(5-(3,5-dimethylisoxazol-4-yl)-1-(tetrahydrofuran-3-yl)-1H-pyrrolo[2,3-b]pyridin-3-yl)-5-ethoxy-2-fluorobenzoic acid]", "pIC50": "3.00 to 5.10"},
      {"compound": "Cc1noc(C)c1-c1cnc2c(c1)c(-c1c(Cl)cc(C(=O)O)cc1OC1CCC1)cn2[C@H]1CCOC1", "note": "[P-0361, (S)-3-chloro-5-cyclobutoxy-4-(5-(3,5-dimethylisoxazol-4-yl)-1-(tetrahydrofuran-3-yl)-1H-pyrrolo[2,3-b]pyridin-3-yl)benzoic acid]", "pIC50": "3.00 to 5.10"},
      {"compound": "COc1cc(C(=O)O)ncc1-c1cn(C2CCOCC2)c2ncc(-c3c(C)noc3C)cc12", "note": "[P-0362, 5-(5-(3,5-dimethylisoxazol-4-yl)-1-(tetrahydro-2H-pyran-4-yl)-1H-pyrrolo[2,3-b]pyridin-3-yl)-4-methoxypicolinic acid]", "pIC50": "6.00 to 10.00"},
      {"compound": "Cc1noc(C)c1-c1cnc2c(c1)c(-c1c(Cl)cc(C(=O)O)cc1OC1CC1)cn2C(C1CC1)C1CC1", "note": "[P-0363, 3-chloro-5-cyclopropoxy-4-(1-(dicyclopropylmethyl)-5-(3,5-dimethylisoxazol-4-yl)-1H-pyrrolo[2,3-b]pyridin-3-yl)benzoic acid]", "pIC50": "5.10 to 6.00"},
      {"compound": "Cc1noc(C)c1-c1cnc2c(c1)c(-c1ccc(C(=O)O)cc1OC(F)(F)F)cn2CC1(C#N)CCC1", "note": "[P-0364, 4-(1-((1-cyanocyclobutyl)methyl)-5-(3,5-dimethylisoxazol-4-yl)-1H-pyrrolo[2,3-b]pyridin-3-yl)-3-(trifluoromethoxy)benzoic acid]", "pIC50": "5.10 to 6.00"},
      {"compound": "Cc1nn(CC(C)(C)O)cc1-n1cc(-c2ccc(C(=O)O)cc2OC(F)(F)F)c2cc(-c3c(C)noc3C)cnc21", "note": "[P-0365, 4-(5-(3,5-dimethylisoxazol-4-yl)-1-(1-(2-hydroxy-2-methylpropyl)-3-methyl-1H-pyrazol-4-yl)-1H-pyrrolo[2,3-b]pyridin-3-yl)-3-(trifluoromethoxy)benzoic acid]", "pIC50": "5.10 to 6.00"},
      {"compound": "Cc1nn(CC(=O)N(C)C)cc1-n1cc(-c2ccc(C(=O)O)cc2OC(F)(F)F)c2cc(-c3c(C)noc3C)cnc21", "note": "[P-0366, 4-(1-(1-(2-(dimethylamino)-2-oxoethyl)-3-methyl-1H-pyrazol-4-yl)-5-(3,5-dimethylisoxazol-4-yl)-1H-pyrrolo[2,3-b]pyridin-3-yl)-3-(trifluoromethoxy)benzoic acid]", "pIC50": "3.00 to 5.10"},
      {"compound": "Cc1cc(C(=O)O)cc(OCC(F)F)c1-c1cn(C2CCOCC2)c2ncc(-c3c(C)noc3C)cc12", "note": "[P-0367, 3-(2,2-difluoroethoxy)-4-(5-(3,5-dimethylisoxazol-4-yl)-1-(tetrahydro-2H-pyran-4-yl)-1H-pyrrolo[2,3-b]pyridin-3-yl)-5-methylbenzoic acid]", "pIC50": "5.10 to 6.00"},
      {"compound": "COc1nc(C(=O)O)ccc1-c1cn(C2CCOCC2)c2ncc(-c3c(C)noc3C)cc12", "note": "[P-0368, 5-(5-(3,5-dimethylisoxazol-4-yl)-1-(tetrahydro-2H-pyran-4-yl)-1H-pyrrolo[2,3-b]pyridin-3-yl)-6-methoxypicolinic acid]", "pIC50": "3.00 to 5.10"},
      {"compound": "Cc1noc(C)c1-c1cnc2c(c1)c(-c1c(F)cc(C(=O)O)cc1OC(C)C)cn2C(C1CC1)C1CC1", "note": "[P-0369, 4-(1-(dicyclopropylmethyl)-5-(3,5-dimethylisoxazol-4-yl)-1H-pyrrolo[2,3-b]pyridin-3-yl)-3-fluoro-5-isopropoxybenzoic acid]", "pIC50": "5.10 to 6.00"},
      {"compound": "CCOc1cc(C(=O)O)cc(Cl)c1-c1cn(C(C2CC2)C2CC2)c2ncc(-c3c(C)noc3C)cc12", "note": "[P-0370, 3-chloro-4-(1-(dicyclopropylmethyl)-5-(3,5-dimethylisoxazol-4-yl)-1H-pyrrolo[2,3-b]pyridin-3-yl)-5-ethoxybenzoic acid]", "pIC50": "5.10 to 6.00"},
      {"compound": "CCOc1cc(C(=O)O)cc(Cl)c1-c1cn(C2CCOCC2)c2ncc(-c3c(C)noc3C)cc12", "note": "[P-0371, 3-chloro-4-(5-(3,5-dimethylisoxazol-4-yl)-1-(tetrahydro-2H-pyran-4-yl)-1H-pyrrolo[2,3-b]pyridin-3-yl)-5-ethoxybenzoic acid]", "pIC50": "5.10 to 6.00"},
      {"compound": "Cc1noc(C)c1-c1cnc2c(c1)c(-c1c(Cl)cc(C(=O)O)cc1OC(C)C)cn2C1CCOCC1", "note": "[P-0372, 3-chloro-4-(5-(3,5-dimethylisoxazol-4-yl)-1-(tetrahydro-2H-pyran-4-yl)-1H-pyrrolo[2,3-b]pyridin-3-yl)-5-isopropoxybenzoic acid]", "pIC50": "5.10 to 6.00"},
      {"compound": "CCOc1cc(C(=O)O)nc(OCC)c1-c1cn(C2CCOCC2)c2ncc(-c3c(C)noc3C)cc12", "note": "[P-0373, 5-(5-(3,5-dimethylisoxazol-4-yl)-1-(tetrahydro-2H-pyran-4-yl)-1H-pyrrolo[2,3-b]pyridin-3-yl)-4,6-diethoxypicolinic acid]", "pIC50": "3.00 to 5.10"},
      {"compound": "CCOc1cc(C(=O)O)c(F)c(OCC)c1-c1cn(C2CCOCC2)c2ncc(-c3c(C)noc3C)cc12", "note": "[P-0374, 4-(5-(3,5-dimethylisoxazol-4-yl)-1-(tetrahydro-2H-pyran-4-yl)-1H-pyrrolo[2,3-b]pyridin-3-yl)-3,5-diethoxy-2-fluorobenzoic acid]", "pIC50": "3.00 to 5.10"},
      {"compound": "CCOc1cc(C(=O)O)c(F)cc1-c1cn(C2CCOCC2)c2ncc(-c3c(C)noc3C)cc12", "note": "[P-0375, 4-(5-(3,5-dimethylisoxazol-4-yl)-1-(tetrahydro-2H-pyran-4-yl)-1H-pyrrolo[2,3-b]pyridin-3-yl)-5-ethoxy-2-fluorobenzoic acid]", "pIC50": "3.00 to 5.10"},
      {"compound": "CCOc1nc(C(=O)O)ccc1-c1cn(C2CCOCC2)c2ncc(-c3c(C)noc3C)cc12", "note": "[P-0376, 5-(5-(3,5-dimethylisoxazol-4-yl)-1-(tetrahydro-2H-pyran-4-yl)-1H-pyrrolo[2,3-b]pyridin-3-yl)-6-ethoxypicolinic acid]", "pIC50": "3.00 to 5.10"},
      {"compound": "CCOc1cc(C(=O)O)c(F)cc1-c1cn(-c2ccccc2F)c2ncc(-c3c(C)noc3C)cc12", "note": "[P-0377, 4-(5-(3,5-dimethylisoxazol-4-yl)-1-(2-fluorophenyl)-1H-pyrrolo[2,3-b]pyridin-3-yl)-5-ethoxy-2-fluorobenzoic acid]", "pIC50": "5.10 to 6.00"},
      {"compound": "Cc1noc(C)c1-c1cnc2c(c1)c(-c1ccc(C(=O)O)cc1OC(F)(F)F)cn2C1CCC1", "note": "[P-0378, 4-(1-cyclobutyl-5-(3,5-dimethylisoxazol-4-yl)-1H-pyrrolo[2,3-b]pyridin-3-yl)-3-(trifluoromethoxy)benzoic acid]", "pIC50": "6.00 to 10.00"},
      {"compound": "Cc1noc(C)c1-c1cnc2c(c1)c(-c1ccc(C(=O)O)cc1OC1CC1)cn2C1CCOCC1", "note": "[P-0379, 3-cyclopropoxy-4-(5-(3,5-dimethylisoxazol-4-yl)-1-(tetrahydro-2H-pyran-4-yl)-1H-pyrrolo[2,3-b]pyridin-3-yl)benzoic acid]", "pIC50": "3.00 to 5.10"},
      {"compound": "Cc1noc(C)c1-c1cnc2c(c1)c(-c1c(Cl)cc(C(=O)O)cc1OC(F)(F)F)cn2C(C1CCC1)C1CCC1", "note": "[P-0380, 3-chloro-4-(1-(dicyclobutylmethyl)-5-(3,5-dimethylisoxazol-4-yl)-1H-pyrrolo[2,3-b]pyridin-3-yl)-5-(trifluoromethoxy)benzoic acid]", "pIC50": "3.00 to 5.10"},
      {"compound": "Cc1noc(C)c1-c1cnc2c(c1)c(-c1c(Cl)cc(C(=O)O)cc1OC1CC1)cn2C1CCOCC1", "note": "[P-0381, 3-chloro-5-cyclopropoxy-4-(5-(3,5-dimethylisoxazol-4-yl)-1-(tetrahydro-2H-pyran-4-yl)-1H-pyrrolo[2,3-b]pyridin-3-yl)benzoic acid]", "pIC50": "5.10 to 6.00"},
      {"compound": "Cc1noc(C)c1-c1cnc2c(c1)c(-c1ccc(C(=O)O)cc1OC(F)(F)F)cn2C1CCCC1", "note": "[P-0382, 4-(1-cyclopentyl-5-(3,5-dimethylisoxazol-4-yl)-1H-pyrrolo[2,3-b]pyridin-3-yl)-3-(trifluoromethoxy)benzoic acid]", "pIC50": "5.10 to 6.00"},
      {"compound": "Cc1noc(C)c1-c1cnc2c(c1)c(-c1ccc(C(=O)O)cc1OC(F)(F)F)cn2C1(C)CCOC1", "note": "(stereo not shown) [P-0383, 4-(5-(3,5-dimethylisoxazol-4-yl)-1-(3-methyltetrahydrofuran-3-yl)-1H-pyrrolo[2,3-b]pyridin-3-yl)-3-(trifluoromethoxy)benzoic acid]", "pIC50": "3.00 to 5.10"},
      {"compound": "Cc1noc(C)c1-c1cnc2c(c1)c(-c1ccc(C(=O)O)cc1OC(F)(F)F)cn2-c1cnc(C2CC2)nc1", "note": "[P-0384, 4-(1-(2-cyclopropylpyrimidin-5-yl)-5-(3,5-dimethylisoxazol-4-yl)-1H-pyrrolo[2,3-b]pyridin-3-yl)-3-(trifluoromethoxy)benzoic acid]", "pIC50": "5.10 to 6.00"},
      {"compound": "Cc1noc(C)c1-c1cnc2c(c1)c(-c1ccc(C(=O)O)cc1OC(F)(F)F)cn2C1(C)CCOCC1", "note": "[P-0385, 4-(5-(3,5-dimethylisoxazol-4-yl)-1-(4-methyltetrahydro-2H-pyran-4-yl)-1H-pyrrolo[2,3-b]pyridin-3-yl)-3-(trifluoromethoxy)benzoic acid]", "pIC50": "3.00 to 5.10"},
      {"compound": "Cc1noc(C)c1-c1cnc2c(c1)c(-c1c(Cl)cc(C(=O)O)cc1OC(F)(F)F)cn2-c1cnc(C2CC2)nc1", "note": "[P-0386, 3-chloro-4-(1-(2-cyclopropylpyrimidin-5-yl)-5-(3,5-dimethylisoxazol-4-yl)-1H-pyrrolo[2,3-b]pyridin-3-yl)-5-(trifluoromethoxy)benzoic acid]", "pIC50": "5.10 to 6.00"},
      {"compound": "Cc1noc(C)c1-c1cnc2c(c1)c(-c1ccc(C(=O)O)cc1OCC(F)F)cn2-c1cnc(C2CC2)nc1", "note": "[P-0387, 4-(1-(2-cyclopropylpyrimidin-5-yl)-5-(3,5-dimethylisoxazol-4-yl)-1H-pyrrolo[2,3-b]pyridin-3-yl)-3-(2,2-difluoroethoxy)benzoic acid]", "pIC50": "3.00 to 5.10"}
    ]}
  ]
}
